In patent US20100092526A1, “NANOEMULSION THERAPEUTIC COMPOSITIONS AND METHODS OF USING THE SAME” (NanoBio Corporation, priority 2008, published 2010):
≈ marks a conversion by molar mass, not a printed value. Read-outs that look alike come from different tables or passages of the source.

Assays:
Acinetobacter baumannii [1] = experiment: MIC/MBC against clinical isolates (CLSI, alamar blue); conditions: Acinetobacter baumannii
Burkholderia cepacia = experiment: MIC/MBC of nanoemulsions against gram-negative isolates (CLSI, alamar blue); assay type: cell-based; conditions: Burkholderia cepacia (n = 5); for MIC50 / MIC Range: nanoemulsions in the presence of 5 mM EDTA; for MIC Range: in µg/mL
Klebsiella pneumoniae = experiment: as above; assay type: cell-based; conditions: Klebsiella pneumoniae (n = 5)
[2] = system: Stenotrophomonas maltophilia; experiment: MIC/MBC against CF isolates (CLSI, alamar blue); conditions: Stenotrophomonas maltophilia
Acinetobacter baumannii [3] = experiment: MIC/MBC of nanoemulsions against gram-negative isolates (CLSI, alamar blue); assay type: cell-based; conditions: Acinetobacter baumannii (n = 5); for MIC50: nanoemulsions in the presence of 5 mM EDTA
Escherichia coli = experiment: as above; assay type: cell-based; conditions: Escherichia coli (n = 5); for MIC50: nanoemulsions in the presence of 5 mM EDTA
Burkholderia cenocepacia = experiment: MIC/MBC against CF isolates (CLSI, alamar blue); conditions: Burkholderia cenocepacia
Pseudomonas aeruginosa [4] = experiment: MIC/MBC of nanoemulsions against gram-negative isolates (CLSI, alamar blue); assay type: cell-based; conditions: Pseudomonas aeruginosa (n = 5)
Pseudomonas aeruginosa [5] = experiment: MIC/MBC against CF isolates (CLSI, alamar blue); conditions: Pseudomonas aeruginosa
Proteus mirabilis = experiment: MIC/MBC of nanoemulsions against gram-negative isolates (CLSI, alamar blue); assay type: cell-based; conditions: Proteus mirabilis (n = 5); for MIC50 / MIC Range: nanoemulsions in the presence of 5 mM EDTA; for MIC Range: in µg/mL
[6] = system: Stenotrophomonas maltophilia; experiment: as above; assay type: cell-based; conditions: Stenotrophomonas maltophilia (n = 5); for MIC50: nanoemulsions in the presence of 5 mM EDTA
Haemophilus influenzae = experiment: Susceptibility (MIC/MBC) of H. influenzae clinical isolates; assay type: cell-based
[7] = nanoemulsions in the presence of 5 mM EDTA
[8] = CF Stenotrophomonas isolate NB41
[9] = CF Stenotrophomonas isolate NB42
[10] = CF Stenotrophomonas isolate NB43
[11] = CF Stenotrophomonas isolate NB44
[12] = CF Stenotrophomonas isolate NB45
[13] = CF Stenotrophomonas isolate Steno 1
[14] = CF Stenotrophomonas isolate Steno 2
[15] = CF Stenotrophomonas isolate Steno 3
[16] = CF Stenotrophomonas isolate Steno 4
[17] = CF Stenotrophomonas isolate Steno 6
[18] = CF Stenotrophomonas isolate Steno 8

CC(C)(O/N=C(\C(=O)N[C@@H]1C(=O)N2C(C(=O)[O-])=C(C[n+]3ccccc3)CS[C@H]12)c1csc(N)n1)C(=O)O [Ceftazidime]
MIC50 (Acinetobacter baumannii [1]): > 32 µg/mL
MIC90 (Acinetobacter baumannii [1]): > 32 µg/mL
MBC (Acinetobacter baumannii [1]; Acinetobacter isolate NB31): > 32 µg/mL
MIC (Acinetobacter baumannii [1]; Acinetobacter isolate NB31): > 32 µg/mL
MBC (Acinetobacter baumannii [1]; Acinetobacter isolate NB32): > 32 µg/mL
MIC (Acinetobacter baumannii [1]; Acinetobacter isolate NB32): > 32 µg/mL
MBC (Acinetobacter baumannii [1]; Acinetobacter isolate NB33): > 32 µg/mL
MIC (Acinetobacter baumannii [1]; Acinetobacter isolate NB33): > 32 µg/mL
MBC (Acinetobacter baumannii [1]; Acinetobacter isolate NB34): 32 µg/mL (≈ 58.5 µM)
MIC (Acinetobacter baumannii [1]; Acinetobacter isolate NB34): 32 µg/mL (≈ 58.5 µM)
MBC (Acinetobacter baumannii [1]; Acinetobacter isolate NB35): > 32 µg/mL
MIC (Acinetobacter baumannii [1]; Acinetobacter isolate NB35): > 32 µg/mL
MBC (Acinetobacter baumannii [1]; Acinetobacter isolate NB36): 4 µg/mL (≈ 7.32 µM)
MIC (Acinetobacter baumannii [1]; Acinetobacter isolate NB36): 2 µg/mL (≈ 3.66 µM)
MBC (Acinetobacter baumannii [1]; Acinetobacter isolate NB37): 32 µg/mL (≈ 58.5 µM)
MIC (Acinetobacter baumannii [1]; Acinetobacter isolate NB37): 32 µg/mL (≈ 58.5 µM)
MBC (Acinetobacter baumannii [1]; Acinetobacter isolate NB38): > 32 µg/mL
MIC (Acinetobacter baumannii [1]; Acinetobacter isolate NB38): > 32 µg/mL
MBC (Acinetobacter baumannii [1]; Acinetobacter isolate NB39): > 32 µg/mL
MIC (Acinetobacter baumannii [1]; Acinetobacter isolate NB39): 32 µg/mL (≈ 58.5 µM)
MBC (Acinetobacter baumannii [1]; Acinetobacter isolate NB40): > 32 µg/mL
MIC (Acinetobacter baumannii [1]; Acinetobacter isolate NB40): > 32 µg/mL
MBC (Acinetobacter baumannii [1]; read-out: MBC 50, 10 Acinetobacter isolates): > 32 µg/mL
% resistant (Burkholderia cepacia): 0.0%
% susceptible (Burkholderia cepacia): 100.0%
MIC50 (Burkholderia cepacia): 2 µg/mL
MIC Range (Burkholderia cepacia): 2-4
% resistant (Klebsiella pneumoniae): 20.0%
% susceptible (Klebsiella pneumoniae): 80.0%
MIC50 (Klebsiella pneumoniae; [7]): ≤ 1 µg/mL
MIC50 [2]: > 32 µg/mL
MIC90 [2]: > 32 µg/mL
MBC [2, 8]: > 32 µg/mL
MIC [2, 8]: > 32 µg/mL
MBC [2, 9]: > 32 µg/mL
MIC [2, 9]: 8 µg/mL (≈ 14.6 µM)
MBC [2, 10]: > 32 µg/mL
MIC [2, 10]: > 32 µg/mL
MBC [2, 11]: > 32 µg/mL
MIC [2, 11]: > 32 µg/mL
MBC [2, 12]: > 32 µg/mL
MIC [2, 12]: > 32 µg/mL
MBC [2, 13]: > 32 µg/mL
MIC [2, 13]: > 32 µg/mL
MBC [2, 14]: > 32 µg/mL
MIC [2, 14]: > 32 µg/mL
MBC [2, 15]: > 32 µg/mL
MIC [2, 15]: > 32 µg/mL
MBC [2, 16]: 16 µg/mL (≈ 29.3 µM)
MIC [2, 16]: 2 µg/mL (≈ 3.66 µM)
MBC [2, 17]: > 32 µg/mL
MIC [2, 17]: 32 µg/mL (≈ 58.5 µM)
MBC [2, 18]: > 32 µg/mL
MIC [2, 18]: 16 µg/mL (≈ 29.3 µM)
MBC ([2]; read-out: MBC 50, 11 CF Stenotrophomonas isolates): > 32 µg/mL
% resistant (Acinetobacter baumannii [3]): 20.0%
% susceptible (Acinetobacter baumannii [3]): 80.0%
MIC50 (Acinetobacter baumannii [3]): 4 µg/mL
% resistant (Escherichia coli): 20.0%
% susceptible (Escherichia coli): 80.0%
MIC50 (Escherichia coli): ≤ 1 µg/mL
MBC (Burkholderia cenocepacia; CF Burkholderia isolate NB21): > 32 µg/mL
MIC (Burkholderia cenocepacia; CF Burkholderia isolate NB21): 8 µg/mL (≈ 14.6 µM)
MBC (Burkholderia cenocepacia; CF Burkholderia isolate NB22): > 32 µg/mL
MIC (Burkholderia cenocepacia; CF Burkholderia isolate NB22): 8 µg/mL (≈ 14.6 µM)
MBC (Burkholderia cenocepacia; CF Burkholderia isolate NB23): > 32 µg/mL
MIC (Burkholderia cenocepacia; CF Burkholderia isolate NB23): > 32 µg/mL
MBC (Burkholderia cenocepacia; CF Burkholderia isolate NB24): 32 µg/mL (≈ 58.5 µM)
MIC (Burkholderia cenocepacia; CF Burkholderia isolate NB24): 4 µg/mL (≈ 7.32 µM)
MBC (Burkholderia cenocepacia; CF Burkholderia isolate NB25): 32 µg/mL (≈ 58.5 µM)
MIC (Burkholderia cenocepacia; CF Burkholderia isolate NB25): 16 µg/mL (≈ 29.3 µM)
MBC (Burkholderia cenocepacia; CF Burkholderia isolate NB26): 32 µg/mL (≈ 58.5 µM)
MIC (Burkholderia cenocepacia; CF Burkholderia isolate NB26): 16 µg/mL (≈ 29.3 µM)
MBC (Burkholderia cenocepacia; CF Burkholderia isolate NB27): 16 µg/mL (≈ 29.3 µM)
MIC (Burkholderia cenocepacia; CF Burkholderia isolate NB27): 8 µg/mL (≈ 14.6 µM)
MBC (Burkholderia cenocepacia; CF Burkholderia isolate NB28b): 16 µg/mL (≈ 29.3 µM)
MIC (Burkholderia cenocepacia; CF Burkholderia isolate NB28b): 16 µg/mL (≈ 29.3 µM)
MBC (Burkholderia cenocepacia; CF Burkholderia isolate NB29): > 32 µg/mL
MIC (Burkholderia cenocepacia; CF Burkholderia isolate NB29): 4 µg/mL (≈ 7.32 µM)
MBC (Burkholderia cenocepacia; CF Burkholderia isolate NB30): 2 µg/mL (≈ 3.66 µM)
MIC (Burkholderia cenocepacia; CF Burkholderia isolate NB30): 2 µg/mL (≈ 3.66 µM)
% resistant (Pseudomonas aeruginosa [4]): 0.0%
% susceptible (Pseudomonas aeruginosa [4]): 100.0%
MIC50 (Pseudomonas aeruginosa [4]; [7]): 2 µg/mL
MIC Range (Pseudomonas aeruginosa [4]; nanoemulsions in the presence of 5 mM EDTA, in µg/mL): 2-4
MBC (Pseudomonas aeruginosa [5]; CF Pseudomonas isolate NB12): 512 µg/mL (≈ 937 µM)
MIC (Pseudomonas aeruginosa [5]; CF Pseudomonas isolate NB12): 256 µg/mL (≈ 468 µM)
MBC (Pseudomonas aeruginosa [5]; CF Pseudomonas isolate NB13): 512 µg/mL (≈ 937 µM)
MIC (Pseudomonas aeruginosa [5]; CF Pseudomonas isolate NB13): 512 µg/mL (≈ 937 µM)
MBC (Pseudomonas aeruginosa [5]; CF Pseudomonas isolate NB14): > 1020 µg/mL
MIC (Pseudomonas aeruginosa [5]; CF Pseudomonas isolate NB14): 1020 µg/mL (≈ 1870 µM)
MBC (Pseudomonas aeruginosa [5]; CF Pseudomonas isolate NB15): 512 µg/mL (≈ 937 µM)
MIC (Pseudomonas aeruginosa [5]; CF Pseudomonas isolate NB15): 256 µg/mL (≈ 468 µM)
MBC (Pseudomonas aeruginosa [5]; CF Pseudomonas isolate NB16): > 1020 µg/mL
MIC (Pseudomonas aeruginosa [5]; CF Pseudomonas isolate NB16): 256 µg/mL (≈ 468 µM)
MBC (Pseudomonas aeruginosa [5]; CF Pseudomonas isolate NB19): 1020 µg/mL (≈ 1870 µM)
MIC (Pseudomonas aeruginosa [5]; CF Pseudomonas isolate NB19): 512 µg/mL (≈ 937 µM)
MBC (Pseudomonas aeruginosa [5]; CF Pseudomonas isolate NB20): 512 µg/mL (≈ 937 µM)
MIC (Pseudomonas aeruginosa [5]; CF Pseudomonas isolate NB20): 256 µg/mL (≈ 468 µM)
% resistant (Proteus mirabilis): 0.0%
% susceptible (Proteus mirabilis): 100.0%
MIC50 (Proteus mirabilis): ≤ 1 µg/mL
MIC Range (Proteus mirabilis): <=1
% resistant [6]: 40.0/40.0%
% susceptible [6]: 40.0/40.0%
MIC50 [6]: 16 µg/mL

CN(C)[C@@H]1C(O)=C(C(N)=O)C(=O)[C@@]2(O)C(O)=C3C(=O)c4c(O)cccc4[C@@](C)(O)[C@H]3C[C@@H]12 [Tetracycline]
MIC50 (Burkholderia cepacia): > 8 µg/mL
MIC Range (Burkholderia cepacia): >8
% resistant (Klebsiella pneumoniae): 0.0%
% susceptible (Klebsiella pneumoniae): 100.0%
MIC50 (Klebsiella pneumoniae; [7]): ≤ 2 µg/mL
MIC Range (Klebsiella pneumoniae; [7]): <=2-4 ^
MIC Range (Haemophilus influenzae; H. influenzae isolates of Table 6, nanoemulsion values as μg CPC/ml or μg BA/ml): 0.5 to 16 µg/mL
MIC (Haemophilus influenzae; Haemophilus influenzae, strain 30, nanoemulsion values as μg CPC/ml or μg BA/ml): 0.5 µg/mL (≈ 1.13 µM)
MIC (Haemophilus influenzae; Haemophilus influenzae, strain 32, nanoemulsion values as μg CPC/ml or μg BA/ml): 2 µg/mL (≈ 4.5 µM)
MIC (Haemophilus influenzae; Haemophilus influenzae, strain 33, nanoemulsion values as μg CPC/ml or μg BA/ml): 1 µg/mL (≈ 2.25 µM)
MIC (Haemophilus influenzae; Haemophilus influenzae, strain 34, nanoemulsion values as μg CPC/ml or μg BA/ml): 1 µg/mL (≈ 2.25 µM)
MIC (Haemophilus influenzae; Haemophilus influenzae, strain 35, nanoemulsion values as μg CPC/ml or μg BA/ml): 0.5 µg/mL (≈ 1.13 µM)
MIC (Haemophilus influenzae; Haemophilus influenzae, strain 36, nanoemulsion values as μg CPC/ml or μg BA/ml): 1 µg/mL (≈ 2.25 µM)
MIC (Haemophilus influenzae; Haemophilus influenzae, strain 37, nanoemulsion values as μg CPC/ml or μg BA/ml): 1 µg/mL (≈ 2.25 µM)
MIC (Haemophilus influenzae; Haemophilus influenzae, strain 38, nanoemulsion values as μg CPC/ml or μg BA/ml): 0.5 µg/mL (≈ 1.13 µM)
MIC (Haemophilus influenzae; Haemophilus influenzae, strain 41, nanoemulsion values as μg CPC/ml or μg BA/ml): 1 µg/mL (≈ 2.25 µM)
MIC (Haemophilus influenzae; Haemophilus influenzae, strain 42, nanoemulsion values as μg CPC/ml or μg BA/ml): 1 µg/mL (≈ 2.25 µM)
MIC (Haemophilus influenzae; Haemophilus influenzae, strain 49247, nanoemulsion values as μg CPC/ml (P4075EC, W205EC) or μg BA/ml (W205GBA2)): 16 µg/mL (≈ 36 µM)
MIC90 (Haemophilus influenzae; Haemophilus influenzae, H. influenzae isolates of Table 6, nanoemulsion values as μg CPC/ml or μg BA/ml): 2 µg/mL (≈ 4.5 µM)
% resistant (Acinetobacter baumannii [3]): 20.0%
% susceptible (Acinetobacter baumannii [3]): 80.0%
MIC50 (Acinetobacter baumannii [3]): ≤ 2 µg/mL
% resistant (Escherichia coli): 80.0%
% susceptible (Escherichia coli): 20.0%
MIC50 (Escherichia coli): > 8 µg/mL
% resistant (Pseudomonas aeruginosa [4]): 40.0%
% susceptible (Pseudomonas aeruginosa [4]): 0.0%
MIC50 (Pseudomonas aeruginosa [4]; [7]): 8 µg/mL
% resistant (Proteus mirabilis): 100.0%
% susceptible (Proteus mirabilis): 0.0%
MIC50 (Proteus mirabilis): > 8 µg/mL
MIC Range (Proteus mirabilis): >8
MIC50 [6]: > 8 µg/mL
